We go through seven substances from patent US20240384268A1, “Oligonucleotides” (Hudson Institute of Medical Research, priority 2021, published 2024).

In the oligonucleotide strings, read from the 5' end, every base follows the letter of its sugar. An asterisk marks phosphorothioate; unmarked linkages are phosphodiester. Other units and linkages are bracketed, terminal groups are in braces. A string of capitals states the bases alone. d = 2'-deoxy (DNA); m = 2'-O-methyl

In the series the target is cGAS (Homo sapiens, UniProt Q8N884). In words: ISD70-driven IP-10 (and IFN-β) production in THP-1 cells, ELISA. Particulars: THP-1; 100 nM ASO overnight, then ISD70 2.5 μg/ml 7-8 h; percentage of ISD70 only. The series is classed as cell-based. Also noted: endogenous in cells; host or cells: THP-1 (undifferentiated).
Sequence of cGAS (Q8N884 whole entry): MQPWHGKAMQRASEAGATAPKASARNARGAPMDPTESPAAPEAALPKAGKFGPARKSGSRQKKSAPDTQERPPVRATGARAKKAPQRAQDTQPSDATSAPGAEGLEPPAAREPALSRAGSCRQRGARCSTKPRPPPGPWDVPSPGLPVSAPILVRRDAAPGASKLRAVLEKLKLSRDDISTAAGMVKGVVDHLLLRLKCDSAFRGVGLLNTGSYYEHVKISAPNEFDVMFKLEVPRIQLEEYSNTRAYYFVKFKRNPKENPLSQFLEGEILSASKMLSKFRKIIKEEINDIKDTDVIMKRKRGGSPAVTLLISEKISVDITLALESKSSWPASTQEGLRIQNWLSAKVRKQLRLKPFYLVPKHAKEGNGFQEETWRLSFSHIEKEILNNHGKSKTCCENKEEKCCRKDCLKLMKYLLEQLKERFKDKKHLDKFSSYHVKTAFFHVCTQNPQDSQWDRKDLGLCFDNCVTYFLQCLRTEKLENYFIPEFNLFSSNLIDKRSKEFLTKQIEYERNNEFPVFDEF
“mU*mG*mU*mU*mU*C*C*C*C*G*G*A*G*A*G*mC*mA*mA*mU*mG (UGUUUCCCCGGAGAGCAAUG; antisense; sugars from the 5' end m5 d10 m5, all phosphorothioate, methylation of C not given here) [[LINC-PINT]501 KL]”: the “cGAS-100 nM: averaged IP-10 levels relative to ISD70” value is 57.81%.
For “mU*mU*mA*mA*mA*T*A*A*T*C*T*A*G*T*T*mU*mG*mA*mA*mG (UUAAATAATCTAGTTUGAAG; sugars from the 5' end m5 d10 m5, all phosphorothioate, methylation of C not given here) [[CDKN2B-AS1]132]” the value was 52.20%.
Consider “mU*mU*mA*mG*mC*T*C*C*T*T*G*C*C*T*C*mG*mU*mU*mC*mC (mU*mU*mA*mG*mC*dT*dC*dC*dT*dT*dG*dC*dC*dT*dC*mG*mU*mU*mC*mC; antisense) [[LINC-PINT] 1222]”, for which the “cGAS-100 nM: averaged IP-10 levels relative to ISD70” value was found to be 63.80%.
For “mU*mU*mC*mU*mC*T*C*T*G*G*T*C*C*C*A*mU*mC*mC*mC*mU (mU*mU*mC*mU*mC*dT*dC*dT*dG*dG*dT*dC*dC*dC*dA*mU*mC*mC*mC*mU; antisense) [[LINC-PINT]111]” the value was 77.41%.
For “mU*mU*mG*mG*mC*C*T*G*T*G*G*A*T*G*C*mU*mU*mU*mG*mU (mU*mU*mG*mG*mC*dC*dT*dG*dT*dG*dG*dA*dT*dG*dC*mU*mU*mU*mG*mU) [[LINC-PINT]2673.1]” the value was 68.35%; for “mU*mU*mG*mU*mG*A*A*A*A*G*A*T*T*A*T*mC*mU*mU*mC*mU (mU*mU*mG*mU*mG*dA*dA*dA*dA*dG*dA*dT*dT*dA*dT*mC*mU*mU*mC*mU) [[CDKN2B-AS1]2138]”, 69.36%.
For “mU*mU*mU*mG*mA*A*A*T*T*C*A*G*A*A*G*mA*mU*mU*mU*mG (mU*mU*mU*mG*mA*dA*dA*dT*dT*dC*dA*dG*dA*dA*dG*mA*mU*mU*mU*mG) [[LINC PINT|2690]” the value was 84.15%.
